Values of other authors in patent US20080160594A1, “Methods of Light Activated Release of Ligands from Endosomes” (INVITROGEN CORPORATION, priority 2001, published 2008).

Conditions: Vlassov et al., 1994

SMILES: CCCCCCCC/C=C\CCCCCCCCOCC(C[N+](C)(C)C)OCCCCCCCC/C=C\CCCCCCCC.[Cl-] (stereo not shown) [DOTMA, N-(1-(2,3-dioleyloxy)propyl)-N,N,N-trimethylammonium chloride]
- increase of the antisense effect of a phosphorothioate oligonucleotide: 1000 fold
